Measured values taken from patent publication US20240150369A1, “CYCLIN-DEPENDENT KINASE INHIBITING COMPOUNDS FOR THE TREATMENT OF MEDICAL DISORDERS” (G1 Therapeutics, Inc., priority 2020, published 2024).
pIC50: −log10 of the molar value.

How the values were obtained:
Format in all cases: biochemical
[1] = target: CDK9/Cyclin T1 (Homo sapiens (Human), UniProt P50750); assay: CDK9/Cyclin T1 kinase assay (Nanosyn, Caliper microfluidic); settings: 12-point dose-response, singlicate, at Km for ATP; ATP 10 μM; 17 hr
Sequence of CDK9/Cyclin T1 (P50750 whole entry): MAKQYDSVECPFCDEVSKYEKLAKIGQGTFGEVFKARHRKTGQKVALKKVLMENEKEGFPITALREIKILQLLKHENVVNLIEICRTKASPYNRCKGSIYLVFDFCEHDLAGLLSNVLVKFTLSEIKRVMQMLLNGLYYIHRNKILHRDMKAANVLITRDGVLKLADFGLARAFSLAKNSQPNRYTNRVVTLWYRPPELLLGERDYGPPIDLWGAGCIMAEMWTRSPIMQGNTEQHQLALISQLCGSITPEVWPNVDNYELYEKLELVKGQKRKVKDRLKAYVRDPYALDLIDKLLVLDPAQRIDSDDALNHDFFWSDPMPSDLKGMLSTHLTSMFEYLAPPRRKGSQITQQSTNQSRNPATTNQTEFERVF
Sequence of CDK9/Cyclin T1 (O60563 whole entry partner): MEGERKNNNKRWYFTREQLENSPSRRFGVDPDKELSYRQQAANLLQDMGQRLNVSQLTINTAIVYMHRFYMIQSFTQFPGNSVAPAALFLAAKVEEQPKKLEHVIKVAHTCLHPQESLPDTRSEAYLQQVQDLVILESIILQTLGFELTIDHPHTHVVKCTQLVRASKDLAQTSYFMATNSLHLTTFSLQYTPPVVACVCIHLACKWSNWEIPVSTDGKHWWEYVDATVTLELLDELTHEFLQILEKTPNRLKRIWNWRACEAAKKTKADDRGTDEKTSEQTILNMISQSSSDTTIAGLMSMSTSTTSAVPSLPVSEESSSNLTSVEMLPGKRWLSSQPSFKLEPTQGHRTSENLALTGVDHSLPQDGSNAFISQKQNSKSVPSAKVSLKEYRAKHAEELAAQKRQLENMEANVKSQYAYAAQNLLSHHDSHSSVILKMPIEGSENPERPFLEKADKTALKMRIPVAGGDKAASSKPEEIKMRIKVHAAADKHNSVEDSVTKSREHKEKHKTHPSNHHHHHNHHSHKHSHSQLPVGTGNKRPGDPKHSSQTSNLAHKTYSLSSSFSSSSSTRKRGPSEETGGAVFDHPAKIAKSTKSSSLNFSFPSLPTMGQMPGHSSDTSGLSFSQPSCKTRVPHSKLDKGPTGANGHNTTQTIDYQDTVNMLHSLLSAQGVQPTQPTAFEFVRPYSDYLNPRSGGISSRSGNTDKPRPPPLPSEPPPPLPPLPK
Method: (§1) Selected compounds disclosed herein were tested in kinase assays by Nanosyn (Santa Clara, CA) to determine their inhibitory effect on these CDKs. The assays were performed using microfluidic kinase detection technology (Caliper Assay Platform). The compounds were tested in 12-point dose-response format in singlicate at Km for ATP. Specifics of each assay are as described below:
CDK9/Cyclin T1: Enzyme concentration: 5 nM; ATP concentration: 10 μM; Incubation time: 17 hr.

[2] = target: CDK7 (Homo sapiens (Human), UniProt P50613); assay: CDK7 kinase assay (Nanosyn, Caliper microfluidic); settings: 12-point dose-response, singlicate, at Km for ATP
Sequence of CDK7 (P50613 whole entry): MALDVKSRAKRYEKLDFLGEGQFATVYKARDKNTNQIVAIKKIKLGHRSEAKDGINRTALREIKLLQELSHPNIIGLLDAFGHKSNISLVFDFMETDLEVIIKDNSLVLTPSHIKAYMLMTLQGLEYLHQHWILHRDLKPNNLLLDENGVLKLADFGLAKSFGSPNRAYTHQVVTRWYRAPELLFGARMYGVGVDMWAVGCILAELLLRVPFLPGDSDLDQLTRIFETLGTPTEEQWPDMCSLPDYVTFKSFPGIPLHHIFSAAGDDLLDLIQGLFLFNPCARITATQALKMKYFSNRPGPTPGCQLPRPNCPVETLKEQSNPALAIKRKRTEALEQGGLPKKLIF
Sequence of CDK7 (P51946 whole entry partner): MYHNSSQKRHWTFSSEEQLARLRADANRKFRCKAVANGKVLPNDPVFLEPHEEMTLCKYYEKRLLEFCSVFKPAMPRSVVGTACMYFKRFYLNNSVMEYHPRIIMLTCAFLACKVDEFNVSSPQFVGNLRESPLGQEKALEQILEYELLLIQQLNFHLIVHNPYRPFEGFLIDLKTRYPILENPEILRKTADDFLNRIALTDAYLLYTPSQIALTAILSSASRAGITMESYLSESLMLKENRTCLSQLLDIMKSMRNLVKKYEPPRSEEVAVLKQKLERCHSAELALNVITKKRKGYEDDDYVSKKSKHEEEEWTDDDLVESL
Sequence of CDK7 (P51948 whole entry partner): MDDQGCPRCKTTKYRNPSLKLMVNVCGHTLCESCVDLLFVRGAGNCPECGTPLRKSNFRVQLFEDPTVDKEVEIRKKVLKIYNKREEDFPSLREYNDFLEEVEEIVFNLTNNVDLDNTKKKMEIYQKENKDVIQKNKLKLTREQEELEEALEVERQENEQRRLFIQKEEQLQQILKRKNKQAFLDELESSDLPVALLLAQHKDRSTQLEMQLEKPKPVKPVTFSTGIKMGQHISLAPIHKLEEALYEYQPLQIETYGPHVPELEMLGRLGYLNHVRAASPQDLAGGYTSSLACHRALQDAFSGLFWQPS
Method: as §1, with “ATP.” for “ATP. Specifics of each assay are as described below:”

[3] = target: CDK2/Cyclin E (Homo sapiens (Human), UniProt P24941); assay: CDK2/Cyclin E kinase assay (Nanosyn, Caliper microfluidic); settings: 12-point dose-response, singlicate, at Km for ATP; ATP 100 μM; 3 hr
Method: as §1
CDK2/Cyclin E: Enzyme concentration: 0.15 nM; ATP concentration: 100 μM; Incubation time: 3 hr.

[4] = target: CDK4/Cyclin D1 (Homo sapiens (Human), UniProt P11802); assay: CDK4/Cyclin D1 kinase assay (Nanosyn, Caliper microfluidic); settings: 12-point dose-response, singlicate, at Km for ATP; ATP 200 μM; 3 hr
Sequence of CDK4/Cyclin D1 (P11802 whole entry): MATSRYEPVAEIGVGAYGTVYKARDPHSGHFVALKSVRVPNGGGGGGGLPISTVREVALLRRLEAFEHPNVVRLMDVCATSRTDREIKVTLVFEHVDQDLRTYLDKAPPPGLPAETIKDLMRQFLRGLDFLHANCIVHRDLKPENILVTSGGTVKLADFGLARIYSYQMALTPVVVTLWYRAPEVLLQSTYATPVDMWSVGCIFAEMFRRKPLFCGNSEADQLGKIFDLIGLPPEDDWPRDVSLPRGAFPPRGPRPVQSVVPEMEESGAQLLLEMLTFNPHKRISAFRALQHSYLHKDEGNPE
Sequence of CDK4/Cyclin D1 (P24385 whole entry partner): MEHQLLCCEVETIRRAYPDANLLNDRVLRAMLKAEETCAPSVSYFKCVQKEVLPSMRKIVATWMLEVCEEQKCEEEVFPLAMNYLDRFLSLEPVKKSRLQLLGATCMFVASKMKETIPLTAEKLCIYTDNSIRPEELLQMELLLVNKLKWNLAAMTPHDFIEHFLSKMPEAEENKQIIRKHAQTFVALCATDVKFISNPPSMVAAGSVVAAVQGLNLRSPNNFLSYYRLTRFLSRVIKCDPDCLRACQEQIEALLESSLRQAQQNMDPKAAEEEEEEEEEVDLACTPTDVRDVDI
Method: as §1
CDK4/Cyclin D1: Enzyme concentration: 1 nM; ATP concentration: 200 μM; Incubation time: 3 hr.

[5] = target: CDK3-CYCLIN-E (Homo sapiens (Human), UniProt Q00526); assay: CDK3-Cyclin-E kinase assay (Nanosyn, Caliper microfluidic); settings: 12-point dose-response, singlicate, at Km for ATP
Method: as §1, with “ATP.” for “ATP. Specifics of each assay are as described below:”

[6] = target: CDK1/Cyclin B1 (Homo sapiens (Human), UniProt P06493); assay: CDK1/Cyclin B1 kinase assay (Nanosyn, Caliper microfluidic); settings: 12-point dose-response, singlicate, at Km for ATP; ATP 40 μM; 3 hr
Sequence of CDK1/Cyclin B1 (P06493 whole entry): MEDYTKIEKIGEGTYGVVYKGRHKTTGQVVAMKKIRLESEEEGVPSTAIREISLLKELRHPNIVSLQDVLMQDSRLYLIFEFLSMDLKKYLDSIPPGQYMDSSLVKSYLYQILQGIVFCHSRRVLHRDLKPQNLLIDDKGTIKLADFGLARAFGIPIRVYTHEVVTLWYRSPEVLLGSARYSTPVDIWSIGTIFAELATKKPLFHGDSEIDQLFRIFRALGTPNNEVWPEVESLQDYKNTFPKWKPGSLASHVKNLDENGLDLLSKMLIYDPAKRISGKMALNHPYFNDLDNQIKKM
Sequence of CDK1/Cyclin B1 (P14635 whole entry partner): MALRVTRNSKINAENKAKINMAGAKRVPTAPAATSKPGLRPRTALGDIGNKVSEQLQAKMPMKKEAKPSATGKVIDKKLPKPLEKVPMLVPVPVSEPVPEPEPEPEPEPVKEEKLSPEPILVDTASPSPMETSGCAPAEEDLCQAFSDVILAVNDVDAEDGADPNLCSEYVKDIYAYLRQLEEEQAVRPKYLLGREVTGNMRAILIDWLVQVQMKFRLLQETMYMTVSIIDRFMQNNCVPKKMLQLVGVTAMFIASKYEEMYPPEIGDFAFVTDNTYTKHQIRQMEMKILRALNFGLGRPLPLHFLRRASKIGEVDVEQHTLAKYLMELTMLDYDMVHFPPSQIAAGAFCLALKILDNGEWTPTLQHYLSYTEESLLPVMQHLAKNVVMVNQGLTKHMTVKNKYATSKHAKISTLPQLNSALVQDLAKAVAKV
Method: as §1
CDK1/Cyclin B1: Enzyme concentration: 0.08 nM; ATP concentration: 40 μM; Incubation time: 3 hr.

[7] = target: CDK2/Cyclin A (Homo sapiens (Human), UniProt P24941); assay: CDK2/Cyclin A kinase assay (Nanosyn, Caliper microfluidic); settings: 12-point dose-response, singlicate, at Km for ATP; ATP 50 μM; 3 hr
Method: as §1
CDK2/Cyclin A: Enzyme concentration: 0.1 nM; ATP concentration: 50 μM; Incubation time: 3 hr.

[8] = target: CDK6/Cyclin D3 (Homo sapiens (Human), UniProt Q00534); assay: CDK6/Cyclin D3 kinase assay (Nanosyn, Caliper microfluidic); settings: 12-point dose-response, singlicate, at Km for ATP; ATP 300 μM; 3 hr
Sequence of CDK6/Cyclin D3 (Q00534 whole entry): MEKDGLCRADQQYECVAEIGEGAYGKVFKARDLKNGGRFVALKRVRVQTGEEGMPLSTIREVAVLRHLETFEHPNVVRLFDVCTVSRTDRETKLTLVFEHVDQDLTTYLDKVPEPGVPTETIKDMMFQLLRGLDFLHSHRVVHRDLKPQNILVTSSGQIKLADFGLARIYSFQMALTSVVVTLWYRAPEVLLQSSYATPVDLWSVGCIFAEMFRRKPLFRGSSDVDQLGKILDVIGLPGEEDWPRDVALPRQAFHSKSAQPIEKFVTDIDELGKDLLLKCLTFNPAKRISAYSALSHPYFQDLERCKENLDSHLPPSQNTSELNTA
Sequence of CDK6/Cyclin D3 (P30281 whole entry partner): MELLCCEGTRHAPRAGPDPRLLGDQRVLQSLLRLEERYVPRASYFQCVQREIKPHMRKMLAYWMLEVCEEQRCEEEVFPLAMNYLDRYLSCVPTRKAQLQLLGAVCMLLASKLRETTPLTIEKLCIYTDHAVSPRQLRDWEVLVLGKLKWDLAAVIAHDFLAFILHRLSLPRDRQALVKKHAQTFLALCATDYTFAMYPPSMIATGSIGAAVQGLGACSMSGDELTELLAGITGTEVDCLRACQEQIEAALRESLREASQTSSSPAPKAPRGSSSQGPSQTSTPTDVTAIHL
Method: as §1
CDK6/Cyclin D3: Enzyme concentration: 2 nM; ATP concentration: 300 μM; Incubation time: 3 hr.

pIC50 [1] | pIC50 [2] | pIC50 [3] | pIC50 [4] | pIC50 [5] | pIC50 [6] | pIC50 [7] | pIC50 [8] | Structure (SMILES)
7.96 | 6.64 | 9.00 | 7.28 | 8.30 | 7.05 | 9.00 | 6.77 | NS(=O)(=O)c1ccc(Nc2ncc3cc4n(c3n2)C2(C=NN4)CCCCC2)cc1 [Compound 4, 4-((1′H-spiro[cyclohexane-1,4′-pyrimido[5′,4′:4,5]pyrrolo[2,1-c][1,2,4]triazin]-7′-yl)amino)benzenesulfonamide]
7.59 | 6.06 | 8.52 | 7.39 | 7.64 | 7.96 | 8.70 | 6.64 | CN1N=CC2(CCCCC2)n2c1cc1cnc(Nc3ccc(S(N)(=O)=O)cc3)nc12 [Compound 5, 4-((1′-methyl-1′H-spiro[cyclohexane-1,4′-pyrimido[5′,4′:4,5]pyrrolo[2,1-c][1,2,4]triazin]-7′-yl)amino)benzenesulfonamide]
7.96 | 6.17 | 9.00 | 7.72 | 8.22 | 7.70 | 9.00 | 7.35 | NS(=O)(=O)c1ccc(Nc2ncc3cc4n(c3n2)C2(CCCCC2)C(=O)N[C@@H]4CF)cc1 [Compound 23, (S)-4-((6′-(fluoromethyl)-8′-oxo-7′,8′-dihydro-6′H-spiro[cyclohexane-1,9′-pyrazino[1′2′:1,5]pyrrolo[2,3-d]pyrimidin]-2′-yl)amino)benzenesulfonamide]
8.22 |  | 9.00 |  | 8.00 | 8.15 | 9.00 |  | CC1C(=O)Nc2cc3cnc(Nc4ccc(S(N)(=O)=O)cc4)nc3n2C12CCCCC2 (stereo not shown) [Compound 42, 4-((8′-methyl-7′-oxo-7′,8′-dihydro-6′H-spiro[cyclohexane-1,9′-pyrrolo[1,5-a:2,3-d′]dipyrimidin]-2′-yl)amino)benzenesulfonamide]
7.68 |  | 8.40 |  | 7.54 | 7.48 | 8.40 |  | CC1C(=O)N(C)c2cc3cnc(Nc4ccc(S(N)(=O)=O)cc4)nc3n2C12CCCCC2 (stereo not shown) [Compound 43, 4-((6′,8′-dimethyl-7′-oxo-7′,8′-dihydro-6′H-spiro[cyclohexane-1,9′-pyrrolo[1,5-a:2,3-d′]dipyrimidin]-2′-yl)amino)benzenesulfonamide]
6.62 | < 6.00 | 7.72 | 6.36 | 7.14 | 6.97 | 7.80 | < 6.00 | CC1=NNc2cc3cnc(Nc4ccc(S(N)(=O)=O)cc4)nc3n2C12CCCCC2 [Compound 45, 4-((3′-methyl-1′H-spiro[cyclohexane-1,4′-pyrimido[5′,4′:4,5]pyrrolo[2,1-c][1,2,4]triazin]-7′-yl)amino)benzenesulfonamide]
8.05 | 6.14 | 8.70 | 7.66 | 7.89 | 7.85 | 8.70 | 7.08 | CC1=NN(C)c2cc3cnc(Nc4ccc(S(N)(=O)=O)cc4)nc3n2C12CCCCC2 [Compound 46, 4-((1′,3′-dimethyl-1′H-spiro[cyclohexane-1,4′-pyrimido[5′,4′:4,5]pyrrolo[2,1-c][1,2,4]triazin]-7′-yl)amino)benzenesulfonamide]
6.70 | 6.62 | 8.00 | 6.60 | 6.94 | 6.32 | 7.35 | 6.32 | CN1CCN(S(=O)(=O)c2ccc(Nc3ncc4cc5n(c4n3)C3(CCCCC3)C(=O)NN5)cc2)CC1 [Compound 49, 7′-((4-((4-methylpiperazin-1-yl)sulfonyl)phenyl)amino)-1′,2′-dihydro-3′H-spiro[cyclohexane-1,4′-pyrimido[5′,4′:4,5]pyrrolo[2,1-c][1,2,4]triazin]-3′-one]
8.70 | 6.93 | 8.40 | 6.95 | 7.55 | 7.11 | 8.70 | 7.29 | CN1CCN(S(=O)(=O)c2ccc(Nc3ncc4cc5n(c4n3)C3(CCCCC3)C(=O)NC5O)cc2)CC1 (stereo not shown) [Compound 50, 6′-hydroxy-2′-((4-((4-methylpiperazin-1-yl)sulfonyl)phenyl)amino)-6′,7′-dihydro-8′H-spiro[cyclohexane-1,9′-pyrazino[1′,2′:1,5]pyrrolo[2,3-d]pyrimidin]-8′-one]
8.30 | 7.18 | 8.30 | 7.39 | 7.64 | 7.51 | 8.40 | 7.20 | CN1CCN(S(=O)(=O)c2ccc(Nc3ncc4cc5n(c4n3)C3(CCCCC3)CC(=O)N5)cc2)CC1 [Compound 51, 2′-((4-((4-methylpiperazin-1-yl)sulfonyl)phenyl)amino)-6′H-spiro[cyclohexane-1,9′-pyrrolo[1,5-a:2,3-d′]dipyrimidin]-7′(8′H)-one]
6.50 | < 6.00 | 8.35 | 7.57 | 7.12 | 6.62 | 7.74 | 7.12 | CN1CCN(C(=O)c2ccc(Nc3ncc4cc5n(c4n3)C3(CCCCC3)C(=O)NN5)cc2)CC1 [Compound 52, 7′-((4-(4-methylpiperazine-1-carbonyl)phenyl)amino)-1′,2′-dihydro-3′H-spiro[cyclohexane-1,4′-pyrimido[5′,4′:4,5]pyrrolo[2,1-c][1,2,4]triazin]-3′-one]
6.55 |  | 6.46 | 6.23 |  | < 6.00 | 6.08 | < 6.00 | CNC(=O)Nc1ccc(Nc2ncc3cc4n(c3n2)C2(CCCCC2)C(=O)NN4)cc1 [Compound 68, 1-methyl-3-(4-((3′-oxo-2′,3′-dihydro-1′H-spiro[cyclohexane-1,4′-pyrimido[5′,4′:4,5]pyrrolo[2,1-c][1,2,4]triazin]-7′-yl)amino)phenyl)urea]
8.05 |  | 8.52 | 8.05 |  | 7.82 | 8.40 | 7.82 | CC1C(=O)Nc2cc3cnc(Nc4ccc(C(=O)N5CCN(C)CC5)cc4)nc3n2C12CCCCC2 (stereo not shown) [Compound 71, 8′-methyl-2′-((4-(4-methylpiperazine-1-carbonyl)phenyl)amino)-6′H-spiro[cyclohexane-1,9′-pyrrolo[1,5-a:2,3-d′]dipyrimidin]-7′(8′H)-one]
7.05 |  | 8.30 | 6.76 |  | 6.84 | 7.80 | 6.54 | CS(=N)(=O)c1ccc(Nc2ncc3cc4n(c3n2)C2(CCCCC2)C(=O)NN4)cc1 (stereo not shown) [Compound 79, 7′-((4-(S-methylsulfonimidoyl)phenyl)amino)-1′,2′-dihydro-3′H-spiro[cyclohexane-1,4′-pyrimido[5′,4′:4,5]pyrrolo[2,1-c][1,2,4]triazin]-3′-one]
< 6.00 |  | 6.68 | < 6.00 |  | < 6.00 | 6.24 | < 6.00 | Nc1ccc(S(=O)(=O)Nc2ncc3cc4n(c3n2)C2(CCCCC2)C(=O)NN4)cc1 [Compound 84, 4-amino-N-(3′-oxo-2′,3′-dihydro-1′H-spiro[cyclohexane-1,4′-pyrimido[5′,4′:4,5]pyrrolo[2,1-c][1,2,4]triazin]-7′-yl)benzenesulfonamide]
6.74 |  | 6.54 | 6.44 |  | < 6.00 | 6.49 | 6.04 | Nc1ccc(S(=O)(=O)Nc2ncc3cc4n(c3n2)C2(CCCCC2)CNC4=O)cc1 [Compound 91, 4-amino-N-(6′-oxo-7′,8′-dihydro-6′H-spiro[cyclohexane-1,9′-pyrazino[1′,2′:1,5]pyrrolo[2,3-d]pyrimidin]-2′-yl)benzenesulfonamide]
